Measured values from paper PMC2766921 (Biochemistry, 2009).

Key:
[1] = tested on: purified bacterial succinyl-CoA synthetase (BSCS); test: in-gel BN-PAGE ATP hydrolysis assay; type: biochemical, Escherichia coli; conditions: 8 mM ATP, 20 mM succinate, 0.5 mM CoA, 14 mM MgSO4, pH 7.8, room temperature
[2] = tested on: purified bacterial succinyl-CoA synthetase (BSCS); test: in-gel BN-PAGE GTP hydrolysis assay; type: biochemical, Escherichia coli; conditions: 8 mM GTP, 20 mM succinate, 0.5 mM CoA, 14 mM MgSO4, pH 7.8, room temperature

Chain of purified bacterial succinyl-CoA synthetase (BSCS) (P0AGE9 2-289): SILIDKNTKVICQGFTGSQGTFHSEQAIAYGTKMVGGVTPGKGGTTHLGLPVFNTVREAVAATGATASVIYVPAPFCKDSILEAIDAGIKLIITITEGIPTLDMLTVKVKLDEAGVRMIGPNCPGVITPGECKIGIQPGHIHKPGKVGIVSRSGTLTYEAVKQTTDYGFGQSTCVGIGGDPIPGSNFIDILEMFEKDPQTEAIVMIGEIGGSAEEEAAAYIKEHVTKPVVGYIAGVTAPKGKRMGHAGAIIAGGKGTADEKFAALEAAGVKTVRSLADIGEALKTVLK
Chain of purified bacterial succinyl-CoA synthetase (BSCS) (P0A836 whole entry, further chain): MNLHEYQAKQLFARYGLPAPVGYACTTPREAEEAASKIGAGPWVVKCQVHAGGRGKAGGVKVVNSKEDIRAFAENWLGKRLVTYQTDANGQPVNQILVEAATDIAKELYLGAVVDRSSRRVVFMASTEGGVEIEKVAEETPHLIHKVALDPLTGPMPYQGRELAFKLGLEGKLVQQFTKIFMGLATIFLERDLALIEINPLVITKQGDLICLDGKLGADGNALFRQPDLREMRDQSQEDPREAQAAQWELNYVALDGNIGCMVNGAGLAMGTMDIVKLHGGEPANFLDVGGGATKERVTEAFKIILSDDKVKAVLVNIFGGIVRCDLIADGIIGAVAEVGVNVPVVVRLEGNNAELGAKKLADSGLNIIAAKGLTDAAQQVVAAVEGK

With Nc1ncnc2c1ncn2[C@@H]1O[C@H](COP(=O)(O)OP(=O)(O)OP(=O)(O)O)[C@@H](O)[C@H]1O [ATP] the “in-gel BN-PAGE ATP hydrolysis assay (lead phosphate)” value [1] was “ATP-dependent activity of BSCS was higher than the GTP-dependent activity”.

With Nc1nc2c(ncn2[C@@H]2O[C@H](COP(=O)(O)OP(=O)(O)OP(=O)(O)O)[C@@H](O)[C@H]2O)c(=O)[nH]1 [GTP] the “in-gel BN-PAGE GTP hydrolysis assay (lead phosphate)” value [2] was “ATP-dependent activity of BSCS was higher than the GTP-dependent activity”.
